Assay results as given in patent publication US10765764B2, “Probes for imaging huntingtin protein” (CHDI Foundation, Inc., priority 2015, dated 2020).

What follows are compounds tested against T1, Q46 protein aggregates (Homo sapiens, UniProt P42858) (assay: Q46 Radioligand Binding Assay (RBA), displacement of [^3H3]MK-3328). Conditions: 10 nM [^3H3]MK-3328, 5 μM Q46 protein aggregates.
T1 construct: fused on or other part: An N-terminal GST tag, cleaved off with thrombin before the assay to trigger aggregation
T1 sequence (P42858 with tags, fused parts or gaps with the stated changes, form open): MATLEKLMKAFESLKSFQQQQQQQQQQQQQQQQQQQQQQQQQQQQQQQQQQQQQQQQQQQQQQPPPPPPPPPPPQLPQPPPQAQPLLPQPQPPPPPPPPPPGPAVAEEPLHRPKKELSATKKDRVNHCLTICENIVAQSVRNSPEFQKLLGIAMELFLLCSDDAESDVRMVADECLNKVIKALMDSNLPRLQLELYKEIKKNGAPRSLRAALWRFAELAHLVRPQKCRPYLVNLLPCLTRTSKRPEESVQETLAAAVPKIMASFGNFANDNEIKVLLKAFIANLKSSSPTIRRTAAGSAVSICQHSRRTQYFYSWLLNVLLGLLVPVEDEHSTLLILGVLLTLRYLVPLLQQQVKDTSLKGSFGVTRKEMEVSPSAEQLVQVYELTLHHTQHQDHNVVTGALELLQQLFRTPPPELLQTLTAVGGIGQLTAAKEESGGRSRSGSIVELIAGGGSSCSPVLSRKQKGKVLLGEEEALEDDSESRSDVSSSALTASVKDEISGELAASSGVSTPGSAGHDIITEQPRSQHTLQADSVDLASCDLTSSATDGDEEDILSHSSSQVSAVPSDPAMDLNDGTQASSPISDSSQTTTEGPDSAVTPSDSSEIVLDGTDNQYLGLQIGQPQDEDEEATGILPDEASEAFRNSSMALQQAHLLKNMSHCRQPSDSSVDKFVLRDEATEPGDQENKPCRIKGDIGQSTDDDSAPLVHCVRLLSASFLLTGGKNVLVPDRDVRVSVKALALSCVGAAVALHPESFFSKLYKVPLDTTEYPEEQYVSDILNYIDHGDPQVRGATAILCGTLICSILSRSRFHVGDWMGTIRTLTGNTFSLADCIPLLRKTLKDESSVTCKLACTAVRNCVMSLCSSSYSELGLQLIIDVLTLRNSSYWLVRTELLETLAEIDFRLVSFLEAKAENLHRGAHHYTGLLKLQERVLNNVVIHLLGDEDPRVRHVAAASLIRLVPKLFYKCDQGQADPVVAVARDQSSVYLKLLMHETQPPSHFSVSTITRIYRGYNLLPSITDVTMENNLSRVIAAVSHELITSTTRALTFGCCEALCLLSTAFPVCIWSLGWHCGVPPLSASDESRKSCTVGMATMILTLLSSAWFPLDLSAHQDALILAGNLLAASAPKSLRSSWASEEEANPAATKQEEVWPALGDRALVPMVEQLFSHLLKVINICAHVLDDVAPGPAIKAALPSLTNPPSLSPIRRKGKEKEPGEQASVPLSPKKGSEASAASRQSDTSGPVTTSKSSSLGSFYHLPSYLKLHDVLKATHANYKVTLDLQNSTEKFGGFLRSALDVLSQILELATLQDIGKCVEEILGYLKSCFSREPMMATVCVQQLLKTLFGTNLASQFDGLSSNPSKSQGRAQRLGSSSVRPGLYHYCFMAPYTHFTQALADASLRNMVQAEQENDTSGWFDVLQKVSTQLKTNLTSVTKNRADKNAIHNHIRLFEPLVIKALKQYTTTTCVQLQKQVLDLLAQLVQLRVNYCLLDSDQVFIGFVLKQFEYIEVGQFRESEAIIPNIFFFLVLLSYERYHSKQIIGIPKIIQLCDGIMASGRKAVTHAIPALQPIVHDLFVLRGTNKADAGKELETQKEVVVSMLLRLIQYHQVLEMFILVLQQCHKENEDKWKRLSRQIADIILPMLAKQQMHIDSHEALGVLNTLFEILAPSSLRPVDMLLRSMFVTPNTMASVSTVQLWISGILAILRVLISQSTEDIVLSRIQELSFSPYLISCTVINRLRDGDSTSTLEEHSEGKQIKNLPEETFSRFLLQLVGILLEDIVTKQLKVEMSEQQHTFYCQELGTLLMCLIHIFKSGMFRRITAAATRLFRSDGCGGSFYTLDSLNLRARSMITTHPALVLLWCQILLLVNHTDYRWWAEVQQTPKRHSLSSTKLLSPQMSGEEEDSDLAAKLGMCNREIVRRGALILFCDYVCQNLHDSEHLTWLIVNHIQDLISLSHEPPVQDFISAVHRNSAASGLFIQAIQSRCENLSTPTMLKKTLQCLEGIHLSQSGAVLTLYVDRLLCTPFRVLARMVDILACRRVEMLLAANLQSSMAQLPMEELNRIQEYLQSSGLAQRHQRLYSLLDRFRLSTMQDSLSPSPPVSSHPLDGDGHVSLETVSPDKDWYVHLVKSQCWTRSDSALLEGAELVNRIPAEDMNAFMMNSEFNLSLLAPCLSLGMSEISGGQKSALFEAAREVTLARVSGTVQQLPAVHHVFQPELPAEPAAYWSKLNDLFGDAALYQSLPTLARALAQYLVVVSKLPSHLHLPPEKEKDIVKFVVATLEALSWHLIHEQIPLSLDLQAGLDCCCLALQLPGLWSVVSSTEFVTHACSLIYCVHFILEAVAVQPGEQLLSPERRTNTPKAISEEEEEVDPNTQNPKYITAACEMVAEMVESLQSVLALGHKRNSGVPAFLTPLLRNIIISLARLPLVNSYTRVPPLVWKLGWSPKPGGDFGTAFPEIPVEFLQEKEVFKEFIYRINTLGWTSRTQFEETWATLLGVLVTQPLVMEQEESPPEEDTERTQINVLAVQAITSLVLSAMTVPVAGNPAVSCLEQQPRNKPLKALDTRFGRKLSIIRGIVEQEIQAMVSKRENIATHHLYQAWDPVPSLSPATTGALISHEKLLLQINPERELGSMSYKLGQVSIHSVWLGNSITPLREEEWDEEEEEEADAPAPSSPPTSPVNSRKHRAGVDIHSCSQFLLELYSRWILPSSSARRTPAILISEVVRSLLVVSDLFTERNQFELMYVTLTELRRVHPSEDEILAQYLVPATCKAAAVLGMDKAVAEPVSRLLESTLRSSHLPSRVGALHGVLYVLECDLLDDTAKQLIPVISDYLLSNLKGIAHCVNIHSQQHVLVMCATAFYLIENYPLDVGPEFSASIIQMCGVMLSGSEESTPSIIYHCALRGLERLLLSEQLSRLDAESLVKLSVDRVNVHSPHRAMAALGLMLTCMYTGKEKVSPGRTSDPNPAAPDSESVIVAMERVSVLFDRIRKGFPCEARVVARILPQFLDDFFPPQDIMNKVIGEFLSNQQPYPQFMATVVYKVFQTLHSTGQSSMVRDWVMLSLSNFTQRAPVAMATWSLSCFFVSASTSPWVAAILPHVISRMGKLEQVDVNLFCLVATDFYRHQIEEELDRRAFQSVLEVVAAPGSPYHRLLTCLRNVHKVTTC
Method: For radioligand binding assays (RBA) GST-Q46 protein was generated based on a previous publication (Scherzinger et al. Cell, Vol. 90, 549-558, Aug. 8, 1997). For experiments 33 μM GST-Q46 was incubated with 150 μg/mL thrombin in assay buffer (150 mM NaCl, 50 mM Tris pH 8.0) and 2 mM CaCl2 for 16 hours at 37° C. Aggregated Q46 was pelleted by centrifugation for 5 minutes at 13,000 rpm in a bench top centrifuge and re-dissolved in the same volume of assay buffer. Test compounds were prepared by titration in DMSO at 11 concentrations from 33 μM to 1 nM. For the RBA, Q46 protein aggregates and test compounds were pre-incubated in assay buffer for 20 minutes at room temperature, in 140 μL/well in a 96-well plate (pp, round bottom). Then, ligand was added in 10 μL/well and incubated for 60 minutes at 37° C. Final assay concentrations were 1 μM to 30 pM test compound, 5 μM Q46 protein (equivalent monomer concentration) and 10 nM ligand [^3H3]MK-3328 (Harrision et al., ACS Med. Chem. Lett., 2 (2011), pp 498-502). Samples were transferred onto GF/B filter plates and washed 2× with 200 μL PBS using a Filtermate Harvester. After drying filter plates for 1 hour at 37° C., the back of the plates was sealed with foil and 30 μl/well scintillation fluid (Packard MicroScint 40) was added, incubated for incubated for 15 minutes in the dark and counted in a TopCount reader. For analysis, replicate data from independent assay plates were normalized towards 0% and 100% inhibition using control wells of vehicle (0% inhibition) and 3 μM unlabelled MK-3328 (100% inhibition). IC50 values were determined with a sigmoidal inhibition model with four variables (top, bottom, slope, IC50) in a global fit using the normalized replicate data.

| SMILES | IC50 [nM] |
| --- | --- |
| COc1ccc2c(c1)sc1nc(C(=O)Nc3ccc[n+]([O-])c3)cn12 [3-{10-methoxy-7-thia-2,5-diazatricyclo[6.4.0.0^2,6]dodeca-1(12),3,5,8,10-pentaene-4-amido}pyridin-1-ium-1-olate] | 100 to 500 |
| COc1cncc(NC(=O)c2ccn3c(n2)nc2cc(OC)ccc23)c1 [5-methoxy-N-(5-methoxypyridin-3-yl)-1,8,10-triazatricyclo[7.4.0.0^2,7]trideca-2(7),3,5,8,10,12-hexaene-11-carboxamide] | < 100 |
| COc1ccc(COc2ccc3c(c2)sc2nc(C(=O)Nc4cncc(OC)c4)cn23)nc1 [10-[(5-methoxypyridin-2-yl)methoxy]-N-(5-methoxypyridin-3-yl)-7-thia-2,5-diazatricyclo[6.4.0.0^2,6]dodeca-1(12),3,5,8,10-pentaene-4-carboxamide] | < 100 |
| COc1ccc2c(c1)sc1nc(C(=O)N3Cc4cnn(C)c4C3)cn12 [10-methoxy-4-{1-methyl-1H,4H,5H,6H-pyrrolo[3,4-c]pyrazole-5-carbonyl}-7-thia-2,5-diazatricyclo[6.4.0.0^2,6]dodeca-1(12),3,5,8,10-pentaene] | < 100 |
| COc1ccc2c(c1)sc1nc(C(=O)N3CCc4ccncc43)cn12 [10-methoxy-4-{1H,2H,3H-pyrrolo[2,3-c]pyridine-1-carbonyl}-7-thia-2,5-diazatricyclo[6.4.0.0^2,6]dodeca-1(12),3,5,8,10-pentaene] | > 500 |
| COCCNC(=O)c1cn2c(n1)sc1cc(OC)ccc12 [10-methoxy-N-(2-methoxyethyl)-7-thia-2,5-diazatricyclo[6.4.0.0^2,6]dodeca-1(12),3,5,8,10-pentaene-4-carboxamide] | 100 to 500 |
| COc1ccc2c(c1)nc1sc(C(=O)Nc3cnc(C)nc3)cn12 [10-methoxy-N-(2-methylpyrimidin-5-yl)-5-thia-2,7-diazatricyclo[6.4.0.0^2,6]dodeca-1(8),3,6,9,11-pentaene-4-carboxamide] | < 100 |
| COc1ccc(NC(=O)c2cn3c(n2)sc2cc(OC)ccc23)nc1 [10-methoxy-N-(5-methoxypyridin-2-yl)-7-thia-2,5-diazatricyclo[6.4.0.0^2,6]dodeca-1(12),3,5,8,10-pentaene-4-carboxamide] | < 100 |
| COc1cncc(NC(=O)c2cn3c(nc4cc(OC)ccc43)s2)c1 [10-methoxy-N-(5-methoxypyridin-3-yl)-5-thia-2,7-diazatricyclo[6.4.0.0^2,6]dodeca-1(12),3,6,8,10-pentaene-4-carboxamide] | < 100 |
| COc1cncc(NC(=O)c2cn3c(n2)sc2cc(OC)ccc23)c1 [10-methoxy-N-(5-methoxypyridin-3-yl)-7-thia-2,5-diazatricyclo[6.4.0.0^2,6]dodeca-1(12),3,5,8,10-pentaene-4-carboxamide] | < 100 |
| COc1ccc2c(c1)sc1nc(C(=O)Nc3ccc(=O)[nH]n3)cn12 [10-methoxy-N-(6-oxo-1,6-dihydropyridazin-3-yl)-7-thia-2,5-diazatricyclo[6.4.0.0^2,6]dodeca-1(12),3,5,8,10-pentaene-4-carboxamide] | < 100 |
| COc1ccc2c(n1)sc1nc(C(=O)Nc3cccnc3)cn12 [10-methoxy-N-(pyridin-3-yl)-7-thia-2,5,9-triazatricyclo[6.4.0.0^2,6]dodeca-1(12),3,5,8,10-pentaene-4-carboxamide] | < 100 |
| COc1ccc2c(c1)sc1nc(C(=O)Nc3cccnc3)cn12 [10-methoxy-N-(pyridin-3-yl)-7-thia-2,5-diazatricyclo[6.4.0.0^2,6]dodeca-1(12),3,5,8,10-pentaene-4-carboxamide] | < 100 |

Second part, the compound after the results:

| IC50 [nM] | SMILES |
| --- | --- |
| < 100 | COc1cncc(NC(=O)c2ccn3c(n2)nc2ccc(OC)cc23)c1 [4-methoxy-N-(5-methoxypyridin-3-yl)-1,8,10-triazatricyclo[7.4.0.0^2,7]trideca-2(7),3,5,8,10,12-hexaene-11-carboxamide] |
| < 100 | COc1ccc2c(c1)nc1nc(C(=O)N3Cc4cnn(C)c4C3)ccn12 [5-methoxy-11-{1-methyl-1H,4H,5H,6H-pyrrolo[3,4-c]pyrazole-5-carbonyl}-1,8,10-triazatricyclo[7.4.0.0^2,7]trideca-2(7),3,5,8,10,12-hexaene] |
| < 100 | COc1ccc2c(c1)nc1nc(C(=O)Nc3ccc(=O)n(C)n3)ccn12 [5-methoxy-N-(1-methyl-6-oxo-1,6-dihydropyridazin-3-yl)-1,8,10-triazatricyclo[7.4.0.0^2,7]trideca-2(7),3,5,8,10,12-hexaene-11-carboxamide] |
| < 100 | COc1ccc2c(c1)nc1nc(C(=O)Nc3ccc(OC)nc3)ccn12 [5-methoxy-N-(6-methoxypyridin-3-yl)-1,8,10-triazatricyclo[7.4.0.0^2,7]trideca-2(7),3,5,8,10,12-hexaene-11-carboxamide] |
| < 100 | COc1ccc2c(c1)nc1nc(C(=O)Nc3cccnc3)ccn12 [5-methoxy-N-(pyridin-3-yl)-1,8,10-triazatricyclo[7.4.0.0^2,7]trideca-2(7),3,5,8,10,12-hexaene-11-carboxamide] |
| < 100 | O=C(Nc1cccnc1)c1cn2c(n1)sc1cc(OCCF)ccc12 [10-(2-fluoroethoxy)-N-(pyridin-3-yl)-7-thia-2,5-diazatricyclo[6.4.0.0^2,6]dodeca-1(8),3,5,9,11-pentaene-4-carboxamide] |
| 100 to 500 | COc1cncc(NC(=O)c2cn3c(n2)sc2cc(CN(C)C)ccc23)c1 [10-[(dimethylamino)methyl]-N-(5-methoxypyridin-3-yl)-7-thia-2,5-diazatricyclo[6.4.0.0^2,6]dodeca-1(12),3,5,8,10-pentaene-4-carboxamide] |
| < 100 | COc1ccc(NC(=O)c2cn3c(n2)sc2cc(O)ccc23)cn1 [10-hydroxy-N-(6-methoxypyridin-3-yl)-7-thia-2,5-diazatricyclo[6.4.0.0^2,6]dodeca-1(12),3,5,8,10-pentaene-4-carboxamide] |
| < 100 | O=C(Nc1cccnc1)c1cn2c(n1)sc1cc(O)ccc12 [10-hydroxy-N-(pyridin-3-yl)-7-thia-2,5-diazatricyclo[6.4.0.0^2,6]dodeca-1(12),3,5,8,10-pentaene-4-carboxamide] |
| 100 to 500 | COc1ccc2c(c1)sc1nc(C(=O)Nc3cnn(C)c3)cn12 [10-methoxy-N-(1-methyl-1H-pyrazol-4-yl)-7-thia-2,5-diazatricyclo[6.4.0.0^2,6]dodeca-1(12),3,5,8,10-pentaene-4-carboxamide] |
| < 100 | COc1ccc2c(c1)nc1sc(C(=O)Nc3ccc(=O)n(C)n3)cn12 [10-methoxy-N-(1-methyl-6-oxo-1,6-dihydropyridazin-3-yl)-5-thia-2,7-diazatricyclo[6.4.0.0^2,6]dodeca-1(12),3,6,8,10-pentaene-4-carboxamide] |
| < 100 | COc1ccc2c(c1)sc1nc(C(=O)Nc3cnc(C)nc3)cn12 [10-methoxy-N-(2-methylpyrimidin-5-yl)-7-thia-2,5-diazatricyclo[6.4.0.0^2,6]dodeca-1(12),3,5,8,10-pentaene-4-carboxamide] |
| < 100 | COc1cncc(NC(=O)c2cn3c(n2)sc2nc(OC)ccc23)c1 [10-methoxy-N-(5-methoxypyridin-3-yl)-7-thia-2,5,9-triazatricyclo[6.4.0.0^2,6]dodeca-1(12),3,5,8,10-pentaene-4-carboxamide] |
| < 100 | COc1ccc2c(c1)sc1nc(C(=O)Nc3ccc(OC)nc3)cn12 [10-methoxy-N-(6-methoxypyridin-3-yl)-7-thia-2,5-diazatricyclo[6.4.0.0^2,6]dodeca-1(12),3,5,8,10-pentaene-4-carboxamide] |
| < 100 | COc1ccc2c(c1)sc1nc(C(=O)Nc3ccc(C)nc3)cn12 [10-methoxy-N-(6-methylpyridin-3-yl)-7-thia-2,5-diazatricyclo[6.4.0.0^2,6]dodeca-1(12),3,5,8,10-pentaene-4-carboxamide] |
| < 100 | COc1ccc2c(c1)sc1nc(C(=O)Nc3ccc(=O)[nH]c3)cn12 [10-methoxy-N-(6-oxo-1,6-dihydropyridin-3-yl)-7-thia-2,5-diazatricyclo[6.4.0.0^2,6]dodeca-1(12),3,5,8,10-pentaene-4-carboxamide] |
| < 100 | COc1ccc2c(c1)sc1nc(C(=O)Nc3cnccn3)cn12 [10-methoxy-N-(pyrazin-2-yl)-7-thia-2,5-diazatricyclo[6.4.0.0^2,6]dodeca-1(12),3,5,8,10-pentaene-4-carboxamide] |
| > 500 | COc1ccc2c(c1)sc1nc(C(=O)NCc3cccnc3)cn12 [10-methoxy-N-(pyridin-3-ylmethyl)-7-thia-2,5-diazatricyclo[6.4.0.0^2,6]dodeca-1(12),3,5,8,10-pentaene-4-carboxamide] |
| < 100 | COc1ccc2c(c1)sc1nc(C(=O)Nc3ccncc3)cn12 [10-methoxy-N-(pyridin-4-yl)-7-thia-2,5-diazatricyclo[6.4.0.0^2,6]dodeca-1(12),3,5,8,10-pentaene-4-carboxamide] |
